In patent US11559598B2, “Alcohol free, low viscosity, and high water content air freshener compositions” (Belle-Aire Fragrances, LLC, priority 2020, dated 2023):
In brackets after ≈: the same amount, converted by molar mass.

What was measured:
[1] = at 25° C.; cited from earlier work
[2] = Appearance of air freshener compositions with 20% BAC1342; assay type: physicochemical; settings: 20% BAC1342 in distilled water, without any other surfactants
Description: (§1) Two of the compositions used traditional used surfactants (polysorbate 20 and octylphenol oxylate), and the third used a glycol ether (diethylene glycol mono butyl ether). The appearances of the compositions were recorded and their viscosities were measured using a Brookfield Rotational Viscometer with Spindle #1 and Rotational Speed at 12 RPM:
Both of the prior art surfactants fail to form transparent microemulsion with 20% BAC1342 in distilled water.

[3] = Viscosity by Brookfield Rotational Viscometer; assay type: physicochemical; settings: 20% BAC1342 in distilled water
Description: as §1, with “RPM: […]” for “RPM:”

Structure (SMILES)	water solubility [1] [µg/mL]	formation of transparent microemulsion [2]	viscosity (in words) [3]
CC(CC=O)c1ccc(C(C)(C)C)cc1 (stereo not shown) [3-(4-tert-butylphenyl)butanal]	38 (≈ 186 µM)		
C=C1CC/C=C(\C)CC[C@@H]2[C@@H]1CC2(C)C [Beta-caryophyllene]	0.05 (≈ 0.245 µM)		
CCCCOCCOCCO [diethylene glycol n-butyl ether]		forms clear microemulsion	low enough to be applied in various formats such as room sprays and plug-ins
